US20040121316A1 (priority 2002, published 2004)
pEC50, pIC50, pKi: −log10 of the molar value. Where “and” joins values, the source holds several entries; their conditions need not be identical. Identical values can stand only once. Like-named read-outs stand apart in the source and are kept apart here.

How the values were obtained:
[1] = biological target: T1, recombinant HIV-1 protease (Human immunodeficiency virus type 1 group M subtype B, UniProt P04585); test: biochemical
T1 construct: Enzyme: recombinant HIV-1 protease expressed in E.Coli; purchased Bachem California, Inc. H-9040; host or cells: E. coli

mutant HIV-1 I84V/L90M = test: Resistance Evaluation, I84V/L90M fold change; format: cell-based; parameters: scale not given here
[2] = system: wild-type HIV-1 strain IIIB; test: microbe, parasite or virus in culture; format: cell-based; parameters: scale not given here
84V90M HIV protease = 84V90M HIV protease (Human immunodeficiency virus type 1 group M subtype B, UniProt P04585, I572V/L578M); test: biochemical; parameters: species or system HIV-1
HIV-1 84V90M = test: microbe, parasite or virus in culture; format: cell-based
HIV-1 30N82I88D = test: microbe, parasite or virus in culture; format: cell-based; details: Human immunodeficiency virus 1, read-out: Cell-based assay (MT-4) EC50/nM 30N82I88D
WT HIV-1 = test: microbe, parasite or virus in culture; format: cell-based
[3] = EC50 of mutant I84V/L90M relative to wild type, class symbols
[4] = Human immunodeficiency virus 1, read-out: Cell-based assay (MT-4) EC50/nM 84V90M
[5] = Human immunodeficiency virus 1, IIIB

Compound	pKi ([1]; Ki, class symbols, Table 10)	I84V/L90M fold change (mutant HIV-1 I84V/L90M; [3])	I84V/L90M fold change (mutant HIV-1 I84V/L90M; mutant I84V/L90M vs wild type)	pEC50 [2, 5]	further results
CCOC(=O)C(C)OP(=O)(Cc1ccc2c(c1)CCN(CC(NC(=O)OC1COC3OCCC13)C(O)CN(CC(C)C)S(=O)(=O)c1ccc(OC)cc1)C2)Oc1ccccc1 (stereo not shown)	9.00 to 10.00	+ (>3 to ≦10)			
CCOC(=O)C(C)OP(=O)(COc1ccc2c(c1)CCN(CC(NC(=O)OC1COC3OCCC13)C(O)CN(CC(C)C)S(=O)(=O)c1ccc(OC)cc1)C2)Oc1ccccc1 (stereo not shown)	9.00 to 10.00	+ (>3 to ≦10)			
COc1ccc(S(=O)(=O)N(CC(C)C)CC(O)C(CC2=CCN(CP(=O)(O)OC(C)C(=O)O)CC2)NC(=O)OC2COC3OCCC23)cc1 (stereo not shown)			− (≦3)		Ki (pM) [1]: + + +; EC50 (nM) [2]: + + +
CCOC(=O)C(C)OP(=O)(CCN1CC=C(CC(NC(=O)OC2COC3OCCC23)C(O)CN(CC(C)C)S(=O)(=O)c2ccc(OC)cc2)CC1)Oc1ccccc1 (stereo not shown)			− (≦3)		pKi ([1]; read-out: Ki): < 9.00; EC50 (nM) [2]: + + +
COc1ccc(S(=O)(=O)N(CC(C)C)CC(O)C(CN(C)Cc2ccc(P(=O)(O)OC(C)C(=O)O)cc2)NC(=O)OC2COC3OCCC23)cc1 (stereo not shown)			+ + +		Ki (pM) [1]: + +; pEC50 ([2]; read-out: EC50): 5.30 to 6.30
CCOC(=O)C(C)OP(=O)(Cc1ccc2c(c1)CCN(C[C@H](NC(=O)O[C@H]1CO[C@H]3OCC[C@H]31)[C@H](O)CN(CC(C)C)S(=O)(=O)c1ccc(OC)cc1)C2)Oc1ccccc1 (stereo partly shown)			+ +		Ki (pM) [1]: + +; EC50 (nM) [2]: + +
COc1ccc(S(=O)(=O)N(CC(C)C)CC(O)C(Cc2ccc(NCP(=O)(O)O)cc2)NC(=O)OC2COC3OCCC23)cc1 (stereo not shown)			+ (>3 to ≦10)		pKi ([1]; read-out: Ki): 9.00 to 10.00; EC50 (nM) [2]: + +
Nc1n[nH]c2ccc(CN3C(=O)N(Cc4cccc(C(=O)O)c4)C(Cc4ccccc4)C(O)C(O)C3Cc3ccccc3)cc12 (stereo not shown)					pIC50 (84V90M HIV protease): 7.57; EC50 (HIV-1 84V90M; [4]): > 6000 nM; EC50 (HIV-1 30N82I88D): > 6000 nM
COC(=O)N[C@H](C(=O)N[C@@H](Cc1ccccc1)[C@@H](O)CN(Cc1ccc(-c2ccccn2)cc1)NC(=O)[C@@H](NC(=O)OC)C(C)(C)C)C(C)(C)C [Atazanavir, reference compound]		+++ (>30)		> 7.30	pKi ([1]; Ki): 10.00 to 11.00
Nc1n[nH]c2ccc(CN3C(=O)N(CCCCOCP(=O)(O)O)C(Cc4ccccc4)C(O)C(O)C3Cc3ccccc3)cc12 (stereo not shown) [CH2 OCH2PO3H2]					pIC50 (84V90M HIV protease): 6.69; EC50 (WT HIV-1; Human immunodeficiency virus 1, read-out: Cell-based assay (MT-4) EC50/nM WT): 1760 nM; EC50 (HIV-1 84V90M; [4]): > 4240 nM
COC(=O)C(C)NP(=O)(COc1ccc(CC(NC(=O)OC2COC3OCCC23)C(O)CN(CC(C)C)S(=O)(=O)c2ccc(OC)cc2)cc1)Oc1ccccc1 (stereo not shown) [Example 30a]	10.00 to 11.00	− (≦3)		> 7.30	
COc1ccc(S(=O)(=O)N(CC(C)C)CC(O)C(Cc2ccc(OCP(=O)(NC(C)C(=O)OC(C)C)Oc3ccccc3)cc2)NC(=O)OC2COC3OCCC23)cc1 (stereo not shown) [Example 30c]	10.00 to 11.00 and > 11.00	− (≦3)			
CCCCOC(=O)C(C)NP(=O)(COc1ccc(CC(NC(=O)OC2COC3OCCC23)C(O)CN(CC(C)C)S(=O)(=O)c2ccc(OC)cc2)cc1)Oc1ccccc1 (stereo not shown) [Example 30d]	10.00 to 11.00	− (≦3)		> 7.30	
COc1ccc(S(=O)(=O)N(CC(C)C)CC(O)C(Cc2ccc(OCP(=O)(Oc3ccccc3)OC(C)C(=O)OC(C)C)cc2)NC(=O)OC2COC3OCCC23)cc1 (stereo not shown) [Example 31a]	10.00 to 11.00 and > 11.00	− (≦3)		> 7.30	
CCCCOC(=O)C(C)OP(=O)(COc1ccc(CC(NC(=O)OC2COC3OCCC23)C(O)CN(CC(C)C)S(=O)(=O)c2ccc(OC)cc2)cc1)Oc1ccccc1 (stereo not shown) [Example 31c]	10.00 to 11.00	− (≦3)		6.30 to 7.30	
CC(C)CN(C[C@@H](O)[C@H](Cc1ccc(OCP(=O)(Oc2ccccc2)Oc2ccccc2)cc1)NC(=O)OC1CCOC1)S(=O)(=O)c1ccc(N)cc1 (stereo partly shown) [NH2, phenol]			− (≦3)		pKi ([1]; read-out: Ki): 9.00 to 10.00; EC50 (nM) [2]: + +
Nc1n[nH]c2ccc(CN3C(=O)N(CCCOCP(=O)(O)O)C(Cc4ccccc4)C(O)C(O)C3Cc3ccccc3)cc12 (stereo not shown) [OCH2PO3H2]					EC50 (WT HIV-1; read-out: Cell-based assay (MT-4) EC50/nM WT): 1070 nM; EC50 (HIV-1 84V90M; MT-4, 84V90M, read-out: Cell-based assay (MT-4) EC50/nM 84V90M): > 6000 nM
CCOP(=O)(COc1ccc(CC(NC(=O)OC2CCOC2)C(O)CN(CC(C)C)S(=O)(=O)c2ccc(OC)cc2)cc1)OCC (stereo not shown) [OMe, OEt]			+ + and + + +		Ki (pM) [1]: + + and + + +; EC50 (nM) [2]: + + +
COc1ccc(S(=O)(=O)N(CC(C)C)C[C@@H](O)[C@H](Cc2ccc(OCP(=O)(Oc3ccccc3)Oc3ccccc3)cc2)NC(=O)OC2CCOC2)cc1 (stereo partly shown) [OMe, phenol]			+ (>3 to ≦10)		Ki (pM) [1]: + + +; EC50 (nM) [2]: + + +
CCOP(=O)(COc1ccc(CC(NC(=O)OC2COC3OCCC23)C(O)CN(CC(C)C)S(=O)(=O)c2ccc(OC)cc2)cc1)Oc1ccccc1 (stereo not shown) [drawing 608 R1=OEt R2=OPh]	> 11.00			> 7.30	
COc1ccc(S(=O)(=O)N(CC(C)C)CC(O)C(Cc2ccc(OCP(=O)(O)Oc3ccccc3)cc2)NC(=O)OC2COC3OCCC23)cc1 (stereo not shown) [drawing 608 R1=OH R2=OPh]	> 11.00			< 5.30	
COc1ccc(S(=O)(=O)N(CC(C)C)CC(O)C(Cc2ccc(OCP(=O)(OC)Oc3ccccc3)cc2)NC(=O)OC2COC3OCCC23)cc1 (stereo not shown) [drawing 608 R1=OMe R2=OPh]	10.00 to 11.00			> 7.30	
COc1ccc(S(=O)(=O)N(CC(C)C)CC(O)C(Cc2ccc(OCP(=O)(NC(C)C(=O)OC(C)C)Oc3ccccc3)cc2)NC(=O)OC2COC3OCCC23)cc1 (stereo not shown) [drawing 614 R1=OPh R2=Ala-iPr]	> 11.00 and 10.00 to 11.00			> 7.30	
CCCCOC(=O)CNP(=O)(COc1ccc(CC(NC(=O)OC2COC3OCCC23)C(O)CN(CC(C)C)S(=O)(=O)c2ccc(OC)cc2)cc1)Oc1ccccc1 (stereo not shown) [drawing 614 R1=OPh R2=Gly-Bu]	10.00 to 11.00	− (≦3)		6.30 to 7.30	
CCOC(=O)COP(=O)(COc1ccc(CC(NC(=O)OC2COC3OCCC23)C(O)CN(CC(C)C)S(=O)(=O)c2ccc(OC)cc2)cc1)Oc1ccccc1 (stereo not shown) [drawing 615 R1=OPh R2=Glc-Et]	> 11.00	− (≦3)		6.30 to 7.30	
CCOC(=O)C(C)OP(=O)(COc1ccc(CC(NC(=O)OC2COC3OCCC23)C(O)CN(CC(C)C)S(=O)(=O)c2ccc(OC)cc2)cc1)Oc1cccc(CN)c1 [drawing 617 R1=OPb-m-CH2NH2 R2=(S)Lac-Et]	10.00 to 11.00			6.30 to 7.30	
COc1ccc(S(=O)(=O)N(CC(C)C)CC(O)C(CC2=CCN(CCP(=O)(OCc3ccccc3)OCc3ccccc3)CC2)NC(=O)OC2COC3OCCC23)cc1 (stereo not shown) [drawing 673]			− (≦3)		pKi ([1]; read-out: Ki): < 9.00; EC50 (nM) [2]: + +
CC(C)CN(CC(O)C(Cc1ccc(OCP(=O)(NC(C)C(=O)OC(C)C)Oc2ccccc2)cc1)NC(=O)OC1CCOC1)S(=O)(=O)c1ccc(N)cc1 (stereo not shown) [drawing 697 R1=OPh R2=Ala-iPr]	9.00 to 10.00	+ (>3 to ≦10)			Ki ([1]; class symbols, Table 10): + +; EC50 ([2]; class symbols, Table 10): + +
CCCCOC(=O)C(C)OP(=O)(COc1ccc(CC(NC(=O)OC2COC3OCCC23)C(O)CN(CC(C)C)S(=O)(=O)c2cccc(N)c2)cc1)Oc1ccccc1 (stereo not shown) [drawing 719]			− (≦3)		Ki ([1]; Ki (pM)): 100 to 1000 pM
CCOP(=O)(CCCNC(=O)c1cccc(CN2C(=O)N(Cc3ccc4[nH]nc(N)c4c3)C(Cc3ccccc3)C(O)C(O)C2Cc2ccccc2)c1)OCC (stereo not shown) [drawing 820]					IC50 (84V90M HIV protease; read-out: 84V90M IC50/nM, Enzymatic assay, 84V90M): 10 nM
